Here are results for 35 compounds from patent US12338203B2 (TAISHO PHARMACEUTICAL CO., LTD., priority 2019, dated 2025).

Each structure is given as a SMILES string.

The assay deals with T1, human LPAR1 (Homo sapiens, UniProt Q92633).
T1 construct: expressed in transfected cells
Kind of assay: Test Example 1: antagonism against response of LPA-induced increase in intracellular Ca2+ concentration in RH7777 cells stably expressing human LPAR1. To be noted: RH7777 cells stably expressing human LPAR1; Fluo-4 fluorescence, FDSS6000; read-out: IC50 value (concentration producing 50% antagonism against response of LPA-induced increase in intracellular Ca2+ concentration) (converted). The format is cell-based. An outline of the steps:
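Ca2+ flux read at 540 nm emission (480 nm excitation) after LPA addition to human LPAR1-expressing RH7777 cells exposed to compound for 30 min, 37 °C, pH 7.4 HEPES-buffered HBSS. Response relative to no-compound control after basal subtraction; IC50 fitted from concentration–response.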

T1 sequence (Q92633 whole entry): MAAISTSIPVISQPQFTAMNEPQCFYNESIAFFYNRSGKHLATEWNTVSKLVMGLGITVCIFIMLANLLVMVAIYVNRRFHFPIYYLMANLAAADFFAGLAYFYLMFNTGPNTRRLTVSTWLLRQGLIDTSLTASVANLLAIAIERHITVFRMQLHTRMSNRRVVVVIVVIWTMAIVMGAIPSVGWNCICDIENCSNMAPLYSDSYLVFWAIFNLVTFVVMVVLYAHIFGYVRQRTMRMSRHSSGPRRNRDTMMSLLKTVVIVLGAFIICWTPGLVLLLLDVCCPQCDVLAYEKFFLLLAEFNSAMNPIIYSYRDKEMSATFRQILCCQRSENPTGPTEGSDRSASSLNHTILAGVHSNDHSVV

With `CCOc1cc([C@@H](C)N(CCCCc2ccccc2)C(=O)NC2(C(=O)O)CCCCCC2)cc(OCC)c1C` [Example 1-119], the IC50 was 53.6 nM.
For the compound `COCc1cc(OC)cc(C(C)N(CCCCc2ccccc2)C(=O)NC2(C(=O)O)CC(F)(F)C2)c1` (centres unmarked) [Example 5-14], the IC50 is 19.1 nM.
In the case of `CCNc1cc([C@@H](C)N(CCCCc2ccccc2)C(=O)NC2(C(=O)O)CC(F)(F)C2)cc(O)c1C(C)=O` [Example 5-112], the IC50 was 15.1 nM.
With `CCOc1cc(C(C)N(CCCCc2ccccc2)C(=O)NC2(C(=O)NS(=O)(=O)N(C)C)CCCC2)cc(OCC)c1C` (centres unmarked) [Example 7-5, 1-({[1-(3,5-Diethoxy-4-Methylphenyl)Ethyl](4-Phenylbutyl) Carbamoyl}Amino)-N-(Dimethylsulfamoyl)Cyclopentane-1-Carboxamide] the figure was 272 nM.
As to `CCOc1cc(C(C)N(CCCCc2ccccc2)C(=O)NC2(C(=O)O)CC(OCC)C2)c(Cl)c(OCC)c1C(C)=O` (centres unmarked) [Example 5-209], the IC50 is 2.75 nM.
With `CCOc1cc([C@@H](C)N(CCO[C@@H](C)c2ccccc2)C(=O)N[C@]2(C(=O)O)C[C@@H](OC)C2)c(C)c(OCC)c1C` [Example 5-79] the figure was 1.21 nM; with `CCOc1cc([C@@H](C)N(CCCCc2ccccc2)C(=O)NC(C(=O)O)C(C)O)cc(OCC)c1C` (some centres unmarked) [Example 1-11], 352 nM; with `CCOc1c(C(C)=O)ccc([C@@H](C)N(CCCC(F)(F)c2ccccc2)C(=O)NC2(C(=O)O)CCOCC2)c1C` [Example 4-78], 8.44 nM.
With `CCOc1cc([C@@H](C)N(CCO[C@@H](C)c2ccccc2)C(=O)N[C@]2(C(=O)O)C[C@@H](OCC)C2)c(Cl)c(OCC)c1C(C)=O` [Example 5-26, Trans-1-[([(1R)-1-(4-Acetyl-2-Chloro-3,5-Diethoxyphenyl)Ethyl]{2-[(1S)-1-Phenylethoxy]Ethyl}Carbamoyl)Amino]-3-Ethoxycyclobutane-1-Carboxylic Acid] the figure was 1.46 nM.
On to `CCOc1cc(C(COC)N(CCCCc2ccccc2)C(=O)NC2(C(=O)O)CC(F)(F)C2)cc(OCC)c1C` (centres unmarked) [Example 3-10], for which the IC50 is 114 nM.
With `COc1cc(C(C)N(CCOCc2ccccc2)C(=O)NC2(C(=O)O)CCC2)c(C)c(OC)c1C` (centres unmarked) [Example 5-136] the figure was 30.7 nM; with `CCOc1cc(C(C)N(CCCCc2ccccc2)C(=O)NC2(C(=O)O)CC(F)(F)C2)cc(OCC)c1Br` (centres unmarked) [Example 1-42], 4.02 nM.
With `CCOc1cc(C(C)N(CCOCc2ccccc2)C(=O)NC2(C(=O)O)CCC2)c(Cl)c(OCC)c1C(C)=O` (centres unmarked) [Example 5-189] the figure was 1.46 nM; with `CCOC(=O)C1(NC(=O)N(CCO[C@@H](C)c2ccccc2)C(C)c2cc(OCC)c(C(C)=O)c(OCC)c2Cl)CC1` (some centres unmarked) [Example 6-8], 2840 nM.
With `COc1cc(C(C)N(CCOCc2ccccc2)C(=O)NC2(C(=O)O)CCOCC2)cc(OC)c1C(C)=O` (centres unmarked) [Example 5-172] the figure was 54.2 nM; with `CCCc1cc(OCC)cc(C(C)N(CCCCc2ccccc2)C(=O)NC2(C(=O)O)CC(F)(F)C2)c1` (centres unmarked) [Example 5-15], 6.1 nM.
For the compound `CCNc1cc(C(C)N(CCCCc2ccccc2)C(=O)NC2(C(=O)O)Cc3ccccc3C2)cc(OCC)c1C(C)=O` (centres unmarked) [Example 5-104], the IC50 is 20.7 nM.
Regarding `CCOc1cc(C(C)N(CCCCc2ccccc2)C(=O)NC2(C(=O)O)CC(F)(F)C2)cc(OCC)c1C(C)O` (centres unmarked) [Example 1-34], the IC50 is 1.99 nM.
As for `CCOc1cc(C(C)N(CCCCc2ccccc2)C(=O)NC2(C(=O)O)CC(F)(F)C2)cc(OCC)c1C(C)(C)O` (centres unmarked) [Example 1-32], the IC50 is 8.93 nM.
With `CCOc1cc([C@H](C)N(CCCCc2ccccc2)C(=O)NC2(C(=O)O)CC(F)(F)C2)cc(OCC)c1C(C)=O` [Example 1-31, 1-({[(1S)-1-(4-Acetyl-3,5-Diethoxyphenyl)Ethyl](4-Phenylbutyl) Carbamoyl}Amino)-3,3-Difluorocyclobutane-1-Carboxylic Acid] the figure was 177 nM.
In the case of `CCOc1cc([C@@H](C)N(CCCCc2ccccc2)C(=O)NC2(C(=O)O)CCOCC2)cc(OCC)c1C(C)=O` [Example 1-151], the IC50 was 3.57 nM.
For `CCOc1c(C2CC2)ccc([C@@H](C)N(CCO[C@@H](C)c2ccccc2)C(=O)NC2(C(=O)O)CCC2)c1C` [Example 4-166], the IC50 is 2.02 nM.
For `CCOc1c(C(C)=O)ccc([C@@H](C)N(CCC(F)(F)Cc2ccccc2)C(=O)NC2(C(=O)O)CC(F)(F)C2)c1C` [Example 4-88], the IC50 was 15.4 nM.
Regarding `CCOc1c(C(C)=O)ccc([C@@H](C)N(CCO[C@H](C)c2ccccc2)C(=O)NC2(C(=O)O)CC(OCC)C2)c1C` (some centres unmarked) [Example 4-158], the IC50 was 4.39 nM.
Turning to `CCOc1cc(CN(CCCCc2ccccc2)C(=O)NC2(C(=O)O)CCCC2)cc(OCC)c1C` [Example 3-2], the IC50 was 85.8 nM.
With `CCOc1cc([C@@H](C)N(CCCc2ccccn2)C(=O)NC2(C(=O)O)CC(F)(F)C2)cc(OCC)c1C` [Example 4-27], the IC50 was 220 nM.
With `COc1cc(C(C)N(CCOCc2ccccc2)C(=O)NC2(C(=O)O)CC(OC)C2)cc(OC)c1C1CC1` (centres unmarked) [Example 5-152] the figure was 2.36 nM.
With `CCOc1cc([C@@H](C)N(CCO[C@@H](C)c2cccc(Cl)c2)C(=O)NC2(C(=O)O)CC(F)(F)C2)c(Cl)c(OCC)c1C(C)=O` [Example 4-177] the figure was 4.02 nM; with `CCOc1cc([C@@H](C)N(CCO[C@@H](C)c2ccccc2)C(=O)N[C@]2(C(=O)O)C[C@H](OC)C2)c(Cl)c(OCC)c1C(C)O` (single isomer, unassigned) [Example 5-59], 8.01 nM; with `CCOc1cc(C(C)N(CCCCc2cc(F)cc(F)c2)C(=O)NC2(C(=O)O)CC(F)(F)C2)cc(OCC)c1C` (centres unmarked) [Example 4-10], 26.4 nM.
For `CCOc1cc(C(C)N(CCCCc2ccccc2)C(=O)NC2(C(=O)O)CC(F)(F)C2)cc(OC)c1C` (centres unmarked) [Example 1-68], the IC50 is 3.78 nM.
In the case of `CCO[C@H]1C[C@@](NC(=O)N(CCO[C@@H](C)c2ccccc2)C(C)c2cc(OC)c(C(C)=O)c(OC)c2Cl)(C(=O)O)C1` (some centres unmarked) [Example 5-128], the IC50 is 10.3 nM.
With `CCOc1cc(C(C)N(CCCC(F)(F)c2ccccc2)C(=O)NC2(c3nn[nH]n3)CC2)cc(OCC)c1C(C)=O` (centres unmarked) [Example 10-4], the IC50 is 2.63 nM.
With `CCOc1cc([C@@H](C)N(CCOCc2ccccc2)C(=O)NC2(C(=O)O)CCOCC2)cc(OCC)c1C(C)=O` [Example 4-110] the figure was 4.31 nM.
With `CCOc1cc([C@@H](C)N(CCO[C@@H](C)c2ccccc2)C(=O)N[C@]2(C(=O)O)C[C@@H](OCC)C2)c(C)c(OCC)c1C(C)=O` [Example 5-118, Trans-1-[([(1R)-1-(4-Acetyl-3,5-Diethoxy-2-Methylphenyl)Ethyl]{2-[(1S)-1-Phenylethoxy]Ethyl}Carbamoyl)Amino]-3-Ethoxycyclobutane-1-Carboxylic Acid] the figure was 1.86 nM.
